From patent US20080139564A1, “SUBSTITUTED PHENYL PROPYL AMINES AS HISTAMINE H3 RECEPTOR AND SEROTONIN TRANSPORTER MODULATORS” (priority 2006, published 2008)
Where two headings read alike, the source gives them in different places.

Columns and labels:
human H3 receptor [1] = molecular target: T1, human H3 receptor (Homo sapiens, UniProt Q9Y5N1); experiment: H3 receptor binding (N-[3H]-α-methylhistamine displacement, SK-N-MC cell membranes); conditions: 0.8 nM N-[3H]-α-methylhistamine, 60 min at 25° C.
T1 construct: expressed in transfected cells
T1 sequence (Q9Y5N1 whole entry): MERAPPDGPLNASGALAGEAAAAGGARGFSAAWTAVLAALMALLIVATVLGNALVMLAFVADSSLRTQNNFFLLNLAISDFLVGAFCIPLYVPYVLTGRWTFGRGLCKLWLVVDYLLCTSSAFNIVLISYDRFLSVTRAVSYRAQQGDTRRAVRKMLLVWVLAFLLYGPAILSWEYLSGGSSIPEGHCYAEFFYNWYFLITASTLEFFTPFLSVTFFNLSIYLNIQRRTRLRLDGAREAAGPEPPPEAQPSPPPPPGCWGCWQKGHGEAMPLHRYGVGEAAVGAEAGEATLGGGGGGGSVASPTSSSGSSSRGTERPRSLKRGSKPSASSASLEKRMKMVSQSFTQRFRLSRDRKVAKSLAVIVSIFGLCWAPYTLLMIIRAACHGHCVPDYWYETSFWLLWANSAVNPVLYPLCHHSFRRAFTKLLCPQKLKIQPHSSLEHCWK
Method: Binding of compounds to the cloned human H3 receptor, stably expressed in SK-N-MC cells, was performed (Lovenberg, T. W. et al. J. Pharmacol. Exp. Ther. 2000, 293, 771-778). Briefly, cell pellets from SK-N-MC cells expressing the human H3 receptor were homogenized in 50 mM Tris-HCl/5 mM EDTA and re-centrifuged at 30,000 g for 30 min. Pellets were re-homogenized in 50 mM Tris/5 mM EDTA (pH 7.4). Membranes were incubated with 0.8 nM N—[^3H]-α-methylhistamine plus/minus test compounds for 60 min at 25° C. and harvested by rapid filtration over GF/C glass fiber filters (pretreated with 0.3% polyethylenimine) followed by four washes with ice-cold buffer. Nonspecific binding was defined in the presence of 10 μM histamine.

human H3 receptor [2] = molecular target: T1, human H3 receptor; experiment: Cyclic AMP accumulation (β-galactosidase reporter in SK-N-MC cells); assay type: cell-based
Method: Sublines of SK-N-MC cells were created that expressed a reporter construct and the human H3 receptor. The reporter gene (β-galactosidase) is under the control of multiple cyclic AMP responsive elements. In 96-well plates, histamine was added directly to the cell media followed 5 min later by an addition of forskolin (5 μM final concentration). When appropriate, antagonists were added 10 min prior to agonist addition. After a 6-h incubation at 37° C., the media was aspirated and the cells washed with 200 μL of phosphate-buffered saline followed by a second aspiration. Cells were lysed with 25 μL 0.1× assay buffer (10 mM Na-phosphate, pH 8, 0.2 mM MgSO4, 0.01 mM MnCl2) and incubated at rt for 10 min. Cells were then incubated for 10 min with 100 μL of 1× assay buffer containing 0.5% Triton and 40 mM β-mercaptoethanol. Color was developed using 25 μL of 1 mg/mL substrate solution (chlorophenolred β-D galactopyranoside; Roche Molecular Biochemicals, Indianapolis, Ind.). Color was quantitated on a microplate reader at absorbance 570 nm. The pA2 values were calculated by Schild regression analysis of the pEC50 values.

Rat SERT = molecular target: T2, Rat SERT (Rattus norvegicus, UniProt P31652); experiment: Rat brain SERT binding ([3H]-Citalopram displacement, rat brain membranes); conditions: 0.6 nM [3H]-Citalopram, 60 min at 25° C.
T2 construct: A rat brain without cerebellum (Zivic Laboratories, Inc.—Pittsburgh, Pa.) was homogenized; tissue Zivic Laboratories, Inc; host or cells: rat brain without cerebellum
T2 sequence (P31652 whole entry): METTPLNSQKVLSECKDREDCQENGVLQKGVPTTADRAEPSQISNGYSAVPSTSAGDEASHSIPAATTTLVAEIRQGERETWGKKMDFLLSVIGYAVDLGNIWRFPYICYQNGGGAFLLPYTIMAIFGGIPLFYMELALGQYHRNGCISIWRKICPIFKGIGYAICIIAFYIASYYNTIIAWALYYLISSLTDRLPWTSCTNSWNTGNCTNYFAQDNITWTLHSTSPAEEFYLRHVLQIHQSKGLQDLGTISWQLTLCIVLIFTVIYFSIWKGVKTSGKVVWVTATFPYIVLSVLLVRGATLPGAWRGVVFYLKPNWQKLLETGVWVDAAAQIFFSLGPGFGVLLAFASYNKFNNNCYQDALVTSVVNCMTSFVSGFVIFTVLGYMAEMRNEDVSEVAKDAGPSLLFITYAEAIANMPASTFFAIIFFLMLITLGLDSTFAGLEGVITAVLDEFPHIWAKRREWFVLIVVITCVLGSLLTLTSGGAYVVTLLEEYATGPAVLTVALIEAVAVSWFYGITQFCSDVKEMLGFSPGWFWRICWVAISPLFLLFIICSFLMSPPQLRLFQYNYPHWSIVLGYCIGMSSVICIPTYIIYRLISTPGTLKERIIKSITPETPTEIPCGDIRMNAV
Method: A rat brain without cerebellum (Zivic Laboratories, Inc.—Pittsburgh, Pa.) was homogenized in a 52.6 mM Tris pH 8/126.4 mM NaCl/5.26 mM KCl mixture and centrifuged at 1,000 rpm for 5 min. The supernatant was removed and re-centrifuged at 15,000 rpm for 30 min. Pellets were re-homogenized in a 52.6 mM Tris pH8/126.4 mM NaCl/5.26 mM KCl mixture. Membranes were incubated with 0.6 nM [^3H]-Citalopram plus/minus test compounds for 60 min at 25° C. and harvested by rapid filtration over GF/C glass fiber filters (pretreated with 0.3% polyethylenimine) followed by four washes with ice-cold buffer. Nonspecific binding was defined in the presence of 100 μM fluoxetine.

human SERT = molecular target: T3, human SERT (Homo sapiens, UniProt P31645); experiment: Human SERT binding (3H-citalopram displacement, HEK293 membranes); conditions: 3H-citalopram 3.1 nM, rt for 1 h
T3 construct: expressed in transfected cells; host or cells: HEK293
T3 sequence (P31645 whole entry): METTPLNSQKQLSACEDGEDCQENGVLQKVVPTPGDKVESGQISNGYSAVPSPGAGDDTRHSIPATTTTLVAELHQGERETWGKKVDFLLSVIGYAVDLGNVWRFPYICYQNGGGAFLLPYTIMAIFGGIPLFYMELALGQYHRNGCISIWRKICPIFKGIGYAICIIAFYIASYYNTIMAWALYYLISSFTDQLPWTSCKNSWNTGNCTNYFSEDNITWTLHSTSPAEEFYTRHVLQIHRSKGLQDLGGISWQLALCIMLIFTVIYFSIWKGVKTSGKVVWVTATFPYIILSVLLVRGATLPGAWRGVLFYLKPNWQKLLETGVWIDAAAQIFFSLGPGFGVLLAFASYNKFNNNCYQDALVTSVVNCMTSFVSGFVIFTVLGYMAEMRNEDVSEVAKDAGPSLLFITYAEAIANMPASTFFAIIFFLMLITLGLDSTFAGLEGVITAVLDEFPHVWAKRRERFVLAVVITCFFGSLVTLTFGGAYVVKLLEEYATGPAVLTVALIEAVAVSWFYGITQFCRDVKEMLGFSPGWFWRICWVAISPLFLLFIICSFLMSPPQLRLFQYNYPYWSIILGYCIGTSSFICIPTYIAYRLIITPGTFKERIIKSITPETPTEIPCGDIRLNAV
Method: Homogenized HEK293 (Human Embryonic Kidney) membranes expressing the human SERT were incubated with ^3H-citalopram (SERT) at rt for 1 h in 50 mM Tris, 120 mM NaCl, 5 mM KCl (pH 7.4). Nonspecific binding was determined in the presence of 10 μM fluoxetine for the SERT. The membranes were washed and the radioactivity was counted as above. Calculations for Ki at the SERT were based on a Kd value for ^3H-citalopram and a ligand concentration of 3.1 nM.

[3] = Schild regression analysis of the pEC50 values, histamine agonist, forskolin 5 μM, SK-N-MC reporter cells, read-out: pA2 (converted)

Row | Structure (SMILES) | Ki (human H3 receptor [1]) [nM] | Kb (human H3 receptor [2]) [nM] | Ki (Rat SERT) [nM] | Ki (human SERT) [nM] | Kb (human H3 receptor [2]; [3]) [nM] | Kb (human H3 receptor [2]; read-out: pA2 (converted)) [nM]
1 | CN(C)CCC(Oc1ccccc1)c1ccc(OCCCN2CCCCC2)cc1 (centres unmarked) [Example 1, Dimethyl-[3-phenoxy-3-[4-(3-piperidin-1-yl-propoxy)-phenyl]-propyl]-amine] | 0.7 | 0.468 | 1 | 26 | – | –
2 | CN(C)CCC(Oc1ccc(C(F)(F)F)cc1)c1ccc(OCCCN2CCCCC2)cc1 (centres unmarked) [Example 2, Dimethyl-[3-[4-(3-piperidin-1-yl-propoxy)-phenyl]-3-(4-trifluoromethyl-phenoxy)-propyl]-amine] | 2.5 | – | 17 | 14 | 2.95 | –
3 | COc1cccc(OC(CCN(C)C)c2ccc(OCCCN3CCCCC3)cc2)c1 (centres unmarked) [Example 13, {3-(3-Methoxy-phenoxy)-3-[4-(3-piperidin-1-yl-propoxy)-phenyl]-propyl}-dimethyl-amine] | 0.7 | – | 3 | 11 | – | 0.617
4 | CN(C)CCC(Oc1cccc(Br)c1)c1ccc(OCCCN2CCCCC2)cc1 (centres unmarked) [Example 15, {3-(3-Bromo-phenoxy)-3-[4-(3-piperidin-1-yl-propoxy)-phenyl]-propyl}-dimethyl-amine] | 1 | – | 2 | 4 | 1.58 | –
5 | CN(C)CCC(Oc1cccnc1)c1ccc(OCCCN2CCCCC2)cc1 (centres unmarked) [Example 18, Dimethyl-[3-[4-(3-piperidin-1-yl-propoxy)-phenyl]-3-(pyridin-3-yloxy)-propyl]-amine] | 0.3 | – | 9 | 91 | – | 0.0631
6 | CN(C)CCC(Oc1ccc(C(F)(F)F)cc1)c1ccc(C#CCCN2CCCCC2)cc1 (centres unmarked) [Example 20, Dimethyl-[3-[4-(4-piperidin-1-yl-but-1-ynyl)-phenyl]-3-(4-trifluoromethyl-phenoxy)-propyl]-amine] | 9 | – | 58 | 61 | 5.62 | –
7 | CN(C)CCC(Oc1ccccc1)c1ccc(C#CCCN2CCCCC2)cc1 (centres unmarked) [Example 21, Dimethyl-{3-phenoxy-3-[4-(4-piperidin-1-yl-but-1-ynyl)-phenyl]-propyl}-amine] | 1.2 | – | 5 | 29 | – | 0.661
8 | CN(C)CCC(Oc1ccccc1)c1ccc(CCCCN2CCCCC2)cc1 (centres unmarked) [Example 32, Dimethyl-{3-phenoxy-3-[4-(4-piperidin-1-yl-butyl)-phenyl]-propyl}-amine] | 6 | – | 7 | 10 | – | 4.79
9 | CC(C)N1CCC(Oc2ccc(C(CCN(C)C)Oc3ccccc3)cc2)CC1 (centres unmarked) [Example 36, {3-[4-(1-Isopropyl-piperidin-4-yloxy)-phenyl]-3-phenoxy-propyl}-dimethyl-amine] | 0.8 | – | 36 | 169 | – | 6.92
10 | CC(C)N1CCN(C(=O)c2ccc(C(CCN(C)C)Oc3ccccc3)cc2)CC1 (centres unmarked) [Example 38, [4-(3-Dimethylamino-1-phenoxy-propyl)-phenyl]-(4-isopropylpiperazin-1-yl)-methanone] | 0.7 | – | 161 | 245 | – | 0.214
11 | CC(C)N1CCN(C(=O)c2ccc(C(CCN(C)C)Oc3ccc(Cl)c(Cl)c3)cc2)CC1 (centres unmarked) [Example 40, {4-[1-(3,4-Dichloro-phenoxy)-3-dimethylamino-propyl]-phenyl}-(4-isopropyl-piperazin-1-yl)-methanone] | 2 | – | 18 | 7 | – | 2.19
12 | CN(C)CCC(Oc1ccc(OCCCN2CCCCC2)cc1)c1ccccc1 (centres unmarked) [Example 41, Dimethyl-{3-phenyl-3-[4-(3-piperidin-1-yl-propoxy)-phenoxy]-propyl}-amine] | 1 | – | 18 | 282 | – | 0.759
13 | CN(C)CCC(Oc1ccc(OCCCN2CCCCC2)cc1)c1ccc(C(F)(F)F)cc1 (centres unmarked) [Example 42, Dimethyl-[3-[4-(3-piperidin-1-yl-propoxy)-phenoxy]-3-(4-trifluoromethyl-phenyl)-propyl]-amine] | 2 | – | 9 | 180 | – | 3.89
14 | CN(C)CCC(Oc1ccc(OCCCN2CCCCC2)cc1)c1ccc(Cl)cc1 (centres unmarked) [Example 43, {3-(4-Chloro-phenyl)-3-[4-(3-piperidin-1-yl-propoxy)-phenoxy]-propyl}-dimethyl-amine] | 1 | – | 23 | 163 | – | 1.7
15 | CC(C)N1CCC(Oc2ccc(OC(CCN(C)C)c3ccccc3)cc2)CC1 (centres unmarked) [Example 44, {3-[4-(1-Isopropyl-piperidin-4-yloxy)-phenoxy]-3-phenyl-propyl}-dimethyl-amine] | 0.9 | – | 18 | 90 | – | 0.0977
16 | CC(C)N1CCN(Cc2ccc(C(CCN(C)C)Oc3ccc(Cl)c(Cl)c3)cc2)CC1 (centres unmarked) [Example 47, {3-(3,4-Dichloro-phenoxy)-3-[4-(4-isopropyl-piperazin-1-ylmethyl)phenyl]-propyl}-dimethyl-amine] | 5 | – | 6 | 6 | – | 11.5
17 | CC(C)N1CCN(Cc2ccc(C(CCN(C)C)Oc3ccccc3)cc2)CC1 (centres unmarked) [Example 56, {3-[4-(4-Isopropyl-piperazin-1-ylmethyl)-phenyl]-3-phenoxy-propyl}-dimethyl-amine] | 1 | – | 14 | 133 | – | 0.977
18 | CN(C)CCC(Oc1ccc(C#CCCN2CCCCC2)cc1)c1ccccc1 (centres unmarked) [Example 57, Dimethyl-{3-phenyl-3-[4-(4-piperidin-1-yl-but-1-ynyl)-phenoxy]-propyl}-amine] | 2 | – | 22 | 172 | – | 2.19
19 | CN(C)CCC(Oc1ccc(C#CCCN2CCCCC2)cc1)c1ccc(C(F)(F)F)cc1 (centres unmarked) [Example 60, Dimethyl-[3-[4-(4-piperidin-1-yl-but-1-ynyl)-phenoxy]-3-(4-trifluoromethyl-phenyl)-propyl]-amine] | 24 | – | 168 | – | – | 17.8
20 | CN(C)CCC(Cc1ccccc1)c1ccc(OCCCN2CCCCC2)cc1 (centres unmarked) [Example 65, Dimethyl-{4-phenyl-3-[4-(3-piperidin-1-yl-propoxy)-phenyl]-butyl}-amine] | 0.8 | – | 1 | 14 | – | 0.251
21 | CN(C)CCC(Nc1ccccc1)c1ccc(OCCCN2CCCCC2)cc1 (centres unmarked) [Example 66, N^3,N^3-Dimethyl-N^1-phenyl-1-[4-(3-piperidin-1-yl-propoxy)-phenyl]-propane-1,3-diamine] | 3 | – | 15 | 151 | – | 3.98
22 | CN(C)CCC(Sc1ccccc1)c1ccc(OCCCN2CCCCC2)cc1 (centres unmarked) [Example 67, Dimethyl-{3-phenylsulfanyl-3-[4-(3-piperidin-1-yl-propoxy)phenyl]-propyl}-amine] | 0.6 | – | 4 | 53 | – | 0.631
23 | NCCC(Oc1ccc(C(F)(F)F)cc1)c1ccc(OCCCN2CCCCC2)cc1 (centres unmarked) [Example 69, 3-[4-(3-Piperidin-1-yl-propoxy)-phenyl]-3-(4-trifluoromethylphenoxy)-propylamine] | 8 | – | 5 | 1 | – | 7.94
24 | CNCCC(Oc1ccc(C(F)(F)F)cc1)c1ccc(OCCCN2CCCCC2)cc1 (centres unmarked) [Example 70, Methyl-[3-[4-(3-piperidin-1-yl-propoxy)-phenyl]-3-(4-trifluoromethyl-phenoxy)-propyl]-amine] | 1 | 3.98 | 3 | 2 | – | –
